Data taken from US20140072617A1, “METHOD FOR PREVENTING OR SLOWING DOWN THE APPEARANCE OF THE EFFECTS OF SKIN AGEING USING A TOCOPHERYL PHOSPHATE IN LIPOSOMES” (LVMH RECHERCHE, priority 2007, published 2014).

Tests used:
[1] = tested on: normal human keratinocytes (NHKs); assay: Apoptosis of normal human keratinocytes after H2O2 oxidative stress (JC-1/TOTO-3 cytometry); assay type: cell-based; conditions: for % NHKs undergoing apoptosis: pretreated 24 h at 10 μg/ml, then 1 mM H2O2 for 3 h, nontreated H2O2 control 54.82, nontreated control 5.48
Experimental: The cells undergoing apoptosis (programmed cell death) are examined on normal human keratinocytes (NHKs) in culture.
The cells are pretreated or not pretreated (controls) for 24 h with the vitamin E derivatives in solution at 10 μg/ml.
The cells are subsequently subjected to oxidative stress (1 mM H2O2 for 3 h).
The proportion of cells undergoing apoptosis is determined by cytometry using the fluorescent probes JC-1 (measurement of mitochondrial transmembrane potential) and TOTO-3 (measurement of plasma membrane permeability).
The apoptotic cells are JC-1-negative (corresponding to a drop in the mitochondrial transmembrane potential) and TOTO-3-negative (corresponding to an absence of alteration of the plasma membrane).
This method has been published (Zullani et al. Cytometry part A, 2003, 54A: 100-108).

epidermal stem cells = assay: Clonogenicity test on keratinocyte colonies derived from epidermal stem cells after oxidative stress; assay type: cell-based, human; conditions: 1 μg/ml for 24 h, then hydrogen peroxide 15 minutes, 7 days of culture; versus stressed controls without treatment
Text: In order to study these epidermal stem cells in the basal cell layer of the epidermis, the test carried out, known as clonogenecity test, is based on the ability that the stem cells have of adhering, in vitro, to a culture support and of dividing so as to generate a large population of daughter cells grouped together in the form of colonies (Barrandon Y., Green H., Three clonal types of keratinocyte with different capacities for multiplication, […], 2302-2306 (1987), and Barrandon Y., Biologie des cellules souches épidermiques [Epidermal Stem Cell Biology], Ann. Dermatol. Venereol. Suppl. 2: 285-286, (1998)).
Analysis of the number and of the size of the colonies after culture makes it possible to characterize the epidermal stem cells.
The first step of isolating these cells consists in preparing a suspension of epidermal cells (Germain L et al., Improvement of human keratinocyte isolation and culture using thermolysin, Burns 19, 99-104 (1993)).
These cells are subsequently seeded onto feeder cells (3T3 fibroblasts), the mitotic activity of which is blocked with mitomycin. […]
After 7 days of culture, the cell colonies formed from each initial keratinocyte are coloured and counted by image analysis according to their size so as to evaluate the amount of stem cells of the initial culture. […]

Compound | % NHKs undergoing apoptosis [1] [%] | number of large colonies (>4 mm^2) compared with the controls (epidermal stem cells) | protective effect against oxidative stress for the keratinocytes (in words) ([1]; 10 μg/ml 24 h, 1 mM H2O2 3 h, compared with control, vitamin E and the other derivatives)
Cc1c(C)c2c(c(C)c1O)CC[C@@](C)(CCC[C@H](C)CCC[C@H](C)CCCC(C)C)O2 [alpha-tocopherol] | 58.82 | – | –
Cc1c(C)c2c(c(C)c1OP(=O)([O-])[O-])CCC(C)(CCCC(C)CCCC(C)CCCC(C)C)O2.[Na+].[Na+] (stereo not drawn) [sodium alpha-tocopheryl phosphate] | – | +104% | –
Cc1c(C)c2c(c(C)c1OC(=O)c1cc(O)ccc1O)CCC(C)(CCCC(C)CCCC(C)CCCC(C)C)O2 (stereo not drawn) [tocopheryl gentisate] | 60.67 | – | –
alpha-tocopheryl phosphate | 32.79 | – | significantly greater than that observed for the control, and also than that observed for vitamin E or the other derivatives
tocotrienol | 42.85 | – | –
